In US12723233B2, “Media and methods for differentiating natural killer cells” (STEMCELL Technologies Canada Inc., priority 2018, dated 2026):

Test system: K562 target cells
Assay: Calcein AM release cytotoxicity assay of differentiated CD56+ NK cells
Assay type: cell-based
Conditions: cells differentiated in the presence of 1 μM UM729, day 28; effector to target ratio 5:1, 4 hours
Procedure: CD56^+ NK cells were differentiated as described in Examples 1 and 2 in the presence of 1 μM UM729 and analyzed on day 28 for their cytotoxicity toward K562 target cells.
For the cytotoxicity assay, the in vitro generated CD56^+ NK cells were co-cultured with Calcein AM labeled K562 cells for 4 hours at a ratio of 5:1 for effector cells (NK cells) to target cells (K562 cells), and supernatants were analysed for the release of fluorescent Calcein from killed target cells.
Peripheral blood (PB) NK cells and Monocytes isolated using EasySep™ (STEMCELL Technologies, Catalogue #17955 and 19359, respectively) were also co-cultured with labelled K562 cells as positive and negative controls, respectively, at the same ratios described above.
To detect spontaneous release of calcein, control wells containing only calcein AM-labeled K562 target cells were set up. The labeled K562 cells were treated with 1% Triton™ X-100 to measure maximum release. After incubation, plates were centrifuged at 500×g for 5 minutes and 100 μL of supernatant was transferred to black plates and analyzed using a SpectraMax® microplate reader (excitation 485 nm/emission 530 nm). Results are expressed as % specific lysis: [(test release−spontaneous release)×100]/(maximum release−spontaneous release).

## COC(=O)c1ccc2c(c1)[nH]c1ncnc(NCCCN3CCCCC3)c12 [UM729, methyl 4-((3-(piperidin-1-yl)propyl)amino)-9H-pyrimido[4,5-b]indole-7-carboxylate]
  Cytotoxicity (killing ability) of differentiated NK cells toward K562 target cells: able to kill K562 target cells
